Tested on: T cells isolated from mouse spleens
Assay: T cell proliferation inhibition (CFSE flow cytometry, anti-CD3/anti-CD28 stimulation)
Format: cell-based
Conditions: mouse spleen T cells, 3 days; for inhibition at 0.01 µM / inhibition at 0.1 µM / inhibition at 1 µM / inhibition at 10 µM / inhibition at 30 µM / inhibition at 50 µM: Mus musculus, T-cell, 72 h, read-out: Proliferation inhibition rate (%)
Experimental: To verify the T cell proliferation inhibitory effect of the compounds according to the present invention, the following experiment was performed based on flow cytometry analysis using carboxyfluorescein diacetate succinimidyl ester (CFSE), a fluorescent dye that binds to intracellular molecules via covalent bonds.
Spleens were extracted from 7-week-old C57BL/6 mice, ground, and then separated into single cells using a strainer (40 μm pore size, SPL). Red blood cells were removed using ACK (Ammonium-Chloride-Potassium) lysis buffer to isolate white blood cells.
Finally, using a MACS Magnetic Stand and LS column, T cells were isolated from the spleen.
The T cells isolated from the spleen were resuspended in 1 mL of free medium (RPMI-1640+200 U/mL penicillin+200 μg/mL streptomycin), and 0.3 μL of CFSE (10 mM) was added. The mixture was incubated at 37° C. for 5 minutes.
Free medium (10 mL) was added to stop the reaction, and the cells were centrifuged to obtain the cell pellet.
RPMI 1640 medium containing 10% FBS, 100 U/mL penicillin, 100 μg/mL streptomycin, and resuspended the cells. The cells were then seeded into a 96-well plate at a density of 2×10^5 cells per well and activated with CD3 and CD28 antibodies (0.5 μg/mL each) to activate T cells.
The compound diluted in DMSO was added at concentrations of 10 nM, 100 nM, 1 μM, 10 μM, 30 μM, and 50 μM, with three wells per concentration, and cultured at 37° C. and 5% CO2 for three days. The cells were then analyzed using a FACS Canto instrument.
The proliferation inhibition rate (%) was calculated using the following formula: […]

| SMILES | inhibition at 0.01 µM (compound 10 nM) [%] | inhibition at 0.1 µM (compound 100 nM) [%] | inhibition at 1 µM (compound 1 μM) [%] | inhibition at 10 µM (compound 10 μM) [%] | inhibition at 30 µM (compound 30 μM) [%] | inhibition at 50 µM (compound 50 μM) [%] | Proliferation inhibition rate (%) (compound 10 nM) | Proliferation inhibition rate (%) (compound 100 nM) | Proliferation inhibition rate (%) (compound 1 μM) | Proliferation inhibition rate (%) (compound 10 μM) | Proliferation inhibition rate (%) (compound 30 μM) | Proliferation inhibition rate (%) (compound 50 μM) |
| --- | --- | --- | --- | --- | --- | --- | --- | --- | --- | --- | --- | --- |
| Nc1ncccc1C(=O)NCCCCCCCCCCCCn1ccc2c(Cl)c(I)cnc21 [Compound 109, 2-Amino-N-(12-(4-chloro-5-iodo-1H-pyrrolo[2,3-b]pyridin-1-yl)dodecyl)nicotinamide] | 0.15 | 8.48 | 20.9 | 100 | 100 | 100 |  |  |  |  |  |  |
| C[C@@H]1CN(CCCCCCCCCCCCNC(=O)c2cccnc2N)C[C@H](C)O1 [Compound 110, 2-amino-N-(12-((2S,6R)-2,6-dimethylmorpholino)dodecyl)nicotinamide] | -36.7 | 100 | 100 | 100 | 100 | 100 |  |  |  |  |  |  |
| CC(C)(C)OC(=O)N1CCN(CCCCCCCCCCCCNC(=O)c2cccnc2N)CC1 [Compound 111, tert-butyl-4-(12-(2-aminonicotinamido)dodecyl) piperazine-1-carboxylate] |  |  |  |  |  |  | 0.00 | 100.00 | 100.00 | 100.00 | 100.00 | 100.00 |
| Nc1ncccc1C(=O)NCCCCCCCCCCCCN1CCN(CC2CCCCC2)CC1 [Compound 113, 2-amino-N-(12-(4-(cyclohexylmethyl)piperazin-1-yl)dodecyl)nicotinamide] | 11.1 | 100 | 100 | 100 | 100 | 100 |  |  |  |  |  |  |
| Nc1ncccc1C(=O)NCCCCCCCCCCCCN1CCC(F)(F)CC1 [Compound 114, 2-amino-N-(12-(4,4-difluoropiperidin-1-yl)dodecyl)nicotinamide] | -18.3 | 26.2 | 100 | 100 | 100 | 100 |  |  |  |  |  |  |
| Nc1ncccc1C(=O)NCCCCCCCCCCCCN1CCC(F)CC1 [Compound 115, 2-amino-N-(12-(4-fluoropiperidin-1-yl)dodecyl)nicotinamide] | -11.4 | 100 | 100 | 100 | 100 | 100 |  |  |  |  |  |  |
| COC(=O)C1CCN(CCCCCCCCCCCCNC(=O)c2cccnc2N)C1 (stereo not drawn) [Compound 116, Methyl-1-(12-(2-aminonicotinamido)dodecyl) pyrrolidine-3-carboxylate] |  |  |  |  |  |  | −1.90 | 26.17 | 100.00 | 100.00 | 100.00 | 100.00 |
| CC(C)(C)OC(=O)N[C@@H]1CCCN(CCCCCCCCCCCCNC(=O)c2cccnc2N)C1 [Compound 117, tert-butyl-(R)-(1-(12-(2-aminonicotinamido)dodecyl)piperidin-3-yl) carbamate] |  |  |  |  |  |  | −15.79 | 100.00 | 100.00 | 100.00 | 100.00 | 100.00 |
| CN1CCN(CCCCCCCCCCCCNC(=O)c2cccnc2Cl)CC1 [Compound 118, 2-chloro-N-(12-(4-methylpiperazin-1-yl)dodecyl)nicotinamide] | 4.24 | 4.82 | 12.6 | 34.5 | 88.6 | 100 |  |  |  |  |  |  |
| Nc1ncccc1C(=O)NCCCCCCCCCCCCN1CCOC1=O [Compound 127, 2-amino-N-(12-(2-oxooxazolidin-3-yl)dodecyl) nicotinamide] |  |  |  |  |  |  | −2.24 | 10.30 | 15.07 | 100.00 | 100.00 | 100.00 |
| Nc1ncccc1C(=O)NCCCCCCCCCCCCNC1CCOC1 (stereo not drawn) [Compound 128, 2-amino-N-(12-((tetrahydrofuran-3-yl)amino)dodecyl) nicotinamide] |  |  |  |  |  |  | −7.16 | 100.00 | 100.00 | 100.00 | 100.00 | 100.00 |
| C[C@@H](C(=O)O)N(C=O)CCCCCCCCCCCCNC(=O)c1cccnc1N [Compound 130, N-(12-(2-aminonicotinamido)dodecyl)-N-formylalanine] | -4.33 | -5.22 | 13.6 | 85.4 | 100 | 100 |  |  |  |  |  |  |
| CN1CCN(CCCCCCCCCCCCNC(=O)c2ccccc2C(=O)NC2CCCCC2)CC1 [Compound 191, N1-Cyclohexyl-N2-(12-(4-methylpiperazin-1-yl)dodecyl)phthalamide] | 0 | 0 | 7.39 | 93.3 | 100 | 100 |  |  |  |  |  |  |
| CN1CCN(CCCCCCCCCCCCNC(=O)c2ccccc2-c2ncc[nH]2)CC1 [Compound 192, 2-(1H-imidazol-2-yl)-N-(12-(4-methylpiperazin-1-yl)dodecyl)benzamide] | -3.25 | -0.84 | 0.96 | 99.8 | 100 | 100 |  |  |  |  |  |  |
| CN1CCN(CCCCCCCCCCCCNC(=O)c2ccccc2-n2cccc2)CC1 [Compound 193, N-(12-(4-methylpiperazin-1-yl)dodecyl)-2-(1H-pyrrol-1-yl)benzamide] | 5.02 | 4.87 | 12 | 100 | 100 | 100 |  |  |  |  |  |  |
| CN1CCN(CCCCCCCCCCCCNC(=O)c2ccccc2-c2ccccc2)CC1 [Compound 194, N-(12-(4-methylpiperazin-1-yl)dodecyl)-[1,1′-biphenyl]-2-carboxamide] | -4.09 | -2.4 | -1.68 | 100 | 100 | 100 |  |  |  |  |  |  |
| CN1CCN(CCCCCCCCCCCCNC(=O)c2ccnc(-c3ccccn3)c2)CC1 [Compound 195, N-(12-(4-methylpiperazin-1-yl)dodecyl)-[2,2′-bipyridine]-4-carboxamide] | 1.77 | 2.81 | -7.83 | 100 | 100 | 100 |  |  |  |  |  |  |
| CN1CCN(CCCCCCCCCCCCNC(=O)c2ccccc2Cc2ccccc2)CC1 [Compound 196, 2-Benzyl-N-(12-(4-methylpiperazin-1-yl)dodecyl)benzamide] | 5.21 | 4.05 | 12.3 | 100 | 100 | 100 |  |  |  |  |  |  |

Source: US20260183274A1, “PDK1 REGULATORY COMPOUND AND COMPOSITION CONTAINING THE SAME” (PROVIBIO CO., LTD., priority 2024, published 2026)
